Source: ChEMBL document CHEMBL1255314, “Outbreak of Acinetobacter baumannii with chromosomally encoded VIM-1 undetectable by imipenem-EDTA synergy tests” (2008)
In brackets after ≈: the same amount, converted by molar mass.

What was measured:
Acinetobacter baumannii = test: Antimicrobial activity against Acinetobacter baumannii isolates by agar dilution method; assay type: functional
[1] = target: BlaVIM-1 (Escherichia coli) (UniProt Q8GDC1); test: Inhibition of VIM-1 activity in Escherichia coli extracts at 100 uM
[2] = target: Metallo-beta-lactamase (Acinetobacter baumannii) (UniProt Q4F6N3); test: Activity of Acinetobacter baumannii isolate TZ42/166 VIM-1 assessed as compound hydrolysis in presence of EDTA
[3] = target: Metallo-beta-lactamase (Acinetobacter baumannii) (UniProt Q4F6N3); test: Activity of Acinetobacter baumannii VIM-1 assessed as compound hydrolysis
[4] = target: Metallo-beta-lactamase (Acinetobacter baumannii) (UniProt Q4F6N3); test: Activity of Acinetobacter baumannii isolate TZ42/166 VIM-1 assessed as compound hydrolysis

SMILES	MIC (Acinetobacter baumannii)	other results
C[C@H]1[C@H](NC(=O)/C(=N\OC(C)(C)C(=O)O)c2csc(N)n2)C(=O)N1S(=O)(=O)O [AZTREONAM]	> 64 µg/mL	
CO/N=C(\C(=O)N[C@@H]1C(=O)N2C(C(=O)[O-])=C(C[N+]3(C)CCCC3)CS[C@H]12)c1csc(N)n1 [CEFEPIME]	> 64 µg/mL	
CO/N=C(\C(=O)N[C@@H]1C(=O)N2C(C(=O)O)=C(COC(C)=O)CS[C@H]12)c1csc(N)n1 [CEFOTAXIME]	> 64 µg/mL	
CC(C)(O/N=C(\C(=O)N[C@@H]1C(=O)N2C(C(=O)[O-])=C(C[n+]3ccccc3)CS[C@H]12)c1csc(N)n1)C(=O)O [CEFTAZIDIME]	> 64 µg/mL	
C[C@@H](O)[C@H]1C(=O)N2C(C(=O)O)=C(SCCNC=N)C[C@H]12 [IMIPENEM ANHYDROUS]	16 µg/mL (≈ 53.4 µM)	inhibition [1]: > 95%; Activity [2]: 1.5 U; Activity [3]: 28 U; Activity [4]: 90 U
C[C@@H](O)[C@H]1C(=O)N2C(C(=O)O)=C(S[C@@H]3CN[C@H](C(=O)N(C)C)C3)[C@H](C)[C@H]12 [MEROPENEM]	16 µg/mL (≈ 41.7 µM)	
